From PMC12751014, “Non-Catalytic Inhibitors of the p38/MK2 Interface: Repurposing Approved Drugs to Target Neuroinflammation in Alzheimer’s Disease” (Journal of Medicinal Chemistry, 2025)
“Also recorded” adds a separate entry of the source.

Assays:
p38α [1] = conditions: systematic kinase profiling; reference number not given; read-out: K d for p38α; cited from earlier work
HMC3 microglial cells = experiment: qRT-PCR of LPS-induced cytokine expression in HMC3 microglial cells; type: cell-based, human; conditions: HMC3, 5 μM compound 1 h before 100 ng/mL LPS 4 h
Description: HMC3 cells were treated with 100 ng/mL E. coli LPS (Sigma-Aldrich, catalog no. L4005) for 4 h in DMEM media. […] Following pretreatment, iMGLs were challenged with 100 ng/mL LPS and 20 ng/mL interferon-γ (IFN-γ) for 24 h to induce an inflammatory response. At the end of the stimulation, cell lysates were collected for qPCR analysis of TNF-α […] gene expression. Total RNA isolation from cell samples was conducted using the RNeasy Plus kit (Qiagen, catalog no. 74134) according to manufacturer instructions and treated with DNase I (Invitrogen, catalog no. 18068-015). Extracted RNA was quantified using the Nanodrop One Spectrophotometer (Thermo Scientific) and then reverse-transcribed into cDNA in equal quantity (<1000 ng/reaction) with the SuperScript III System (Invitrogen, catalog no. 18080-051) following manufacturer directions. cDNA sample was treated with RNase H (Invitrogen, catalog no. 18021014) and diluted to 4 ng/μL equivalent of the starting total RNA. qPCR was performed in 96-well PCR plates (BioRad, catalog no. HSP9601) using the Realplex4Mastercycler (Eppendorf). Each reaction well combines 5 μL cDNA sample, 10 μL 2X SYBR Green Supermix (BioRad, catalog no. 1725271), 1 μL 5 μM primer mix for each target gene, and nuclease-free water up to 20 μL. […] The primer sequences used were: TNFα forward [NT], reverse [NT]-6 forward [NT], reverse [NT]-1β forward [NT], reverse [NT] Each gene was expression-normalized against the housekeeping gene GAPDH with the primer sequences: forward [NT], reverse [NT] Primers were obtained from Integrated DNA Technologies in lyophilized form. The cycler program was set to denaturation at 95 °C for 15 s, followed by annealing and extension at 60 °C for 60 s, repeated for 40 PCR cycles. Melting curve analyses were performed for each sample to ensure primer specificity. The experiment was performed in biological quadruplicates and technical quadruplicates.

[2] = target: recombinant His-tagged p38 (Homo sapiens, UniProt Q16539)
p38/MK2 interaction [3] = target: T1, p38/MK2 interaction (Homo sapiens, UniProt Q16539); experiment: TR-FRET ultra-high-throughput screening (uHTS), 1536-well, HEK293T lysate VF-p38α / GST-MK2; type: binding; set-up: inhibition of p38/MK2 interaction, primary screen: concentration or dose not given beside the values
[4] = tested on: human iPSC-derived microglia (iMGL); experiment: qRT-PCR of LPS/IFNγ-induced TNF-α expression in iPSC-derived microglia (iMGL); type: cell-based; conditions: 5 μM compound 1 h before LPS/IFN-γ 24 h
p38/MK2 interaction [5] = target: T1, p38/MK2 interaction; experiment: TR-FRET assay with purified recombinant His-p38 and GST-MK2; type: binding; conditions: side-by-side TR-FRET, 2h incubation
Description: ENSG00000112062, UniProt ID: Q16539-1) was cloned into a pMCSG7 vector and transformed into Escherichia coli strain BL21(DE3). […] The resuspended cells were lysed through sonication. The lysate was centrifuged for 20 min at 70,000g at 4 °C and the clarified supernatant was passed through a gravity column containing 2 mL Ni-NTA resin pre-equilibrated with equilibration buffer. The resin was then washed with 25 column volumes of equilibration buffer supplemented with 40 mM imidazole, and the protein was eluted with equilibration buffer supplemented with 200 mM imidazole. […] The purity of the enzyme was verified by sodium dodecyl sulfate-polyacrylamide gel electrophoresis (SDS-PAGE) with Coomassie staining, aliquots flash frozen in liquid nitrogen, and stored at -80 °C.

[6] = target: T2, endogenous p38/MK2 complex (Homo sapiens, UniProt Q16539); experiment: Co-immunoprecipitation of endogenous p38/MK2 complex in HMC3 cells; type: cell-based; conditions: HMC3 cell lysate
T2 construct: endogenous in cells; host or cells: HMC3 (ATCC CRL-3304)
Description: HMC3 cells were lysed with 1% NP-40 lysis buffer, as described above. Clear cell lysate was incubated with equilibrated MK2-Trap Agarose beads (ChromoTek, catalog no. mta-20) or Binding Control Agarose Beads (Chromotek, catalog no. bab-20) and compounds or DMSO at 4 °C for 2 h. Immunoprecipitates were washed three times with 1% NP-40 lysis buffer. Samples were boiled in 1X SDS-PAGE sample buffer (BioRad, catalog no. 1610747) for 5 min before analysis by Western blotting.
Proteins in each sample were separated by SDS-PAGE at 200 V for 40 min using 12.5% acrylamide gels. Transfer to nitrocellulose membranes was completed using the Trans-Blot Turbo Transfer System (BioRad) in TBT buffer (BioRad, catalog no. 10026938). Thirty min incubation in 5% nonfat dry milk (BioRad, catalog no. 170–6404) in TBST buffer (20 mM Tris-base, 150 mM NaCl, and 0.05% Tween 20) at room temperature was used to block membranes. p38α MAPK mouse mAb (Cell Signaling Technology, catalog no. 9217) was used to blot the membrane at 4 °C overnight. […] The wash step was repeated, and the blot was imaged with a ChemiDoc imaging system (BioRad). The SuperSignal West Pico PLUS Chemiluminescent Substrate (Thermo Scientific, catalog no. 34580) was used for developing membranes. Blotting of MK2 was then started with the removal of p38α antibodies using a striping buffer (Thermal Scientific, catalog no. 46430). […]

p38α [7] = conditions: systematic kinase profiling; reference number not given; read-out: IC50, inhibition of p38α catalysis; cited from earlier work

T1 sequence (Q16539 whole entry): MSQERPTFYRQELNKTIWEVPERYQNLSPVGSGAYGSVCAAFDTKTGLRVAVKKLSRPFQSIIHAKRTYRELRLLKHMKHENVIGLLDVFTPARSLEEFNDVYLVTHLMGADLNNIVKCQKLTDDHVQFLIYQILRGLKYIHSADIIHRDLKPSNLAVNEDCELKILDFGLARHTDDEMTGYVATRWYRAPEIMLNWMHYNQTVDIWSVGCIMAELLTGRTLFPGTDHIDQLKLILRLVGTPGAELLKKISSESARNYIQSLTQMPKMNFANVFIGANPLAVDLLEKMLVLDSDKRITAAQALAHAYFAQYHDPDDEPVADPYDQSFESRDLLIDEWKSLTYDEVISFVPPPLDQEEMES
T2 sequence (Q16539 whole entry, one chain of several): as the sequence (Q16539 whole entry) above
Chain of recombinant His-tagged p38 (Q16539 whole entry): as above

## Cc1cn(-c2cc(NC(=O)c3ccc(C)c(Nc4nccc(-c5cccnc5)n4)c3)cc(C(F)(F)F)c2)cn1 [Nilotinib, 4-methyl-N-[3-(4-methylimidazol-1-yl)-5-(trifluoromethyl)phenyl]-3-[(4-pyridin-3-ylpyrimidin-2-yl)amino]benzamide]
p38α [1]
  Kd: 100 nM
HMC3 microglial cells
  LPS-induced TNF-α, IL-6, and IL-1β expression: significantly (p-value <0.05) suppresses; also recorded: significantly reduced
[2]
  ΔT max (thermal stabilization): 8.22 °C
p38/MK2 interaction [3]; relative to DMSO control, 1536-well
  inhibition of p38/MK2 interaction, primary screen: ≥ 50%
p38/MK2 interaction [3]; uHTS TR-FRET signal, Emory Enriched Library
  Pct of control: 8.91 Pct of control
[4]
  LPS/IFNγ-induced TNF-α expression: suppresses; also recorded: suppression
p38/MK2 interaction [5]
  maximal inhibition of p38/MK2 PPI: ~75%
[6]
  endogenous p38/MK2 complex formation (co-IP): disrupts the endogenous p38/MK2 complex
[6]; listed as nilotinib
  endogenous p38/MK2 complex formation (co-IP): decreased p38/MK2 complex formation
p38α [7]
  IC50: ~2200 nM
